{"source": "patent US20090291964A1", "about": "“Potentiators of Antibacterial Activity” (priority 2003, published 2009)", "format_in_all_cases": "cell-based", "key": {"S. aureus ATCC 29213": {"tested_on": "S. aureus ATCC 29213", "assay": "MIC by NCCLS microdilution, antibacterial agents with and without EPI", "settings": "at 100 μg/ml"}, "[1]": {"tested_on": "E. faecalis clinical isolates", "assay": "MIC90 studies: fluoroquinolone susceptibility of clinical isolate panel with EPI", "settings": "EPI at 50 μg/ml", "method": "(§1) Susceptibility studies with large panels of resistant clinical isolates were performed at Focus Technologies, Herndon, Va. according to NCCLS protocols (National Committee for Clinical Laboratory Standards, supra).\n(§2) To be useful in combination therapy, an EPI needs to substantially reduce the MIC of an antibiotic to within the range of clinical susceptibility. Because many different resistance mechanisms are often present in clinical isolates, including the likelihood of multiple target-based mutations in addition to efflux mutations, the barrier to antibiotic efficacy is much greater. […] Oxacillin and vancomycin MICs were also determined to identify which isolates were methicillin-resistant (S. aureus) and vancomycin-resistant (E. faecalis)."}, "[2]": {"tested_on": "S. aureus clinical isolates", "assay": "MIC90 studies: fluoroquinolone susceptibility of clinical isolate panel with EPI", "settings": "EPI at 50 μg/ml", "method": "as §1, §2"}, "[3]": {"settings": "E. faecalis clinical isolate 10"}, "[4]": {"settings": "E. faecalis clinical isolate 11"}, "[5]": {"settings": "E. faecalis clinical isolate 12"}, "[6]": {"settings": "E. faecalis clinical isolate 13"}, "[7]": {"settings": "E. faecalis clinical isolate 14"}, "[8]": {"settings": "E. faecalis clinical isolate 15"}, "[9]": {"settings": "E. faecalis clinical isolate 16"}, "[10]": {"settings": "E. faecalis clinical isolate 17"}, "[11]": {"settings": "E. faecalis clinical isolate 18"}, "[12]": {"settings": "E. faecalis clinical isolate 19"}, "[13]": {"settings": "E. faecalis clinical isolate 20"}, "[14]": {"settings": "E. faecalis clinical isolate 21"}, "[15]": {"settings": "E. faecalis clinical isolate 22"}, "[16]": {"settings": "E. faecalis clinical isolate 23"}, "[17]": {"settings": "E. faecalis clinical isolate 24"}, "[18]": {"settings": "E. faecalis clinical isolate 25"}, "[19]": {"settings": "E. faecalis clinical isolate 26"}}}
{"smiles": "COc1cc(C(=O)C(=O)N(C)[C@@H](Cc2ccc(Cl)cc2)C(=O)N(Cc2ccccc2)C(CCc2ccncc2)CCc2ccncc2)cc(OC)c1OC", "note": "[C-9, (S)—N-Benzyl-2-(methyl-(2-oxo-2-(3,4,5-trimethoxyphenyl)acetyl)amino)-3-(4-chloro-phenyl)-N-(3-pyridin-4-yl-1-(2-pyridin-4-yl-ethyl)propyl)propionamide]", "values": [{"measurement": "intrinsic antibacterial activity of EPI", "setting": "S. aureus ATCC 29213", "result": "no intrinsic antibacterial activity"}, {"measurement": "Ciprofloxacin MIC with EPI", "setting": "[1]; E. faecalis clinical isolate 1", "result": 1, "unit": "µg/mL"}, {"measurement": "Norfloxacin MIC with EPI", "setting": "[1]; E. faecalis clinical isolate 1", "result": 2, "unit": "µg/mL"}, {"measurement": "Ciprofloxacin MIC with EPI", "setting": "[1]; E. faecalis clinical isolate 2", "result": 1, "unit": "µg/mL"}, {"measurement": "Norfloxacin MIC with EPI", "setting": "[1]; E. faecalis clinical isolate 2", "result": 2, "unit": "µg/mL"}, {"measurement": "Ciprofloxacin MIC with EPI", "setting": "[1]; E. faecalis clinical isolate 3", "result": 64, "unit": "µg/mL"}, {"measurement": "Norfloxacin MIC with EPI", "setting": "[1]; E. faecalis clinical isolate 3", "result": 128, "unit": "µg/mL"}, {"measurement": "Ciprofloxacin MIC with EPI", "setting": "[1]; E. faecalis clinical isolate 4", "result": 64, "unit": "µg/mL"}, {"measurement": "Norfloxacin MIC with EPI", "setting": "[1]; E. faecalis clinical isolate 4", "result": 128, "unit": "µg/mL"}, {"measurement": "Ciprofloxacin MIC with EPI", "setting": "[1]; E. faecalis clinical isolate 5", "result": 64, "unit": "µg/mL"}, {"measurement": "Norfloxacin MIC with EPI", "setting": "[1]; E. faecalis clinical isolate 5", "result": 64, "unit": "µg/mL"}, {"measurement": "Ciprofloxacin MIC with EPI", "setting": "[1]; E. faecalis clinical isolate 6", "result": 1, "unit": "µg/mL"}, {"measurement": "Norfloxacin MIC with EPI", "setting": "[1]; E. faecalis clinical isolate 6", "result": 8, "unit": "µg/mL"}, {"measurement": "Ciprofloxacin MIC with EPI", "setting": "[1]; E. faecalis clinical isolate 7", "result": 1, "unit": "µg/mL"}, {"measurement": "Norfloxacin MIC with EPI", "setting": "[1]; E. faecalis clinical isolate 7", "result": 2, "unit": "µg/mL"}, {"measurement": "Ciprofloxacin MIC with EPI", "setting": "[1]; E. faecalis clinical isolate 8", "result": 32, "unit": "µg/mL"}, {"measurement": "Norfloxacin MIC with EPI", "setting": "[1]; E. faecalis clinical isolate 8", "result": 128, "unit": "µg/mL"}, {"measurement": "Ciprofloxacin MIC with EPI", "setting": "[1]; E. faecalis clinical isolate 9", "result": 1, "unit": "µg/mL"}, {"measurement": "Norfloxacin MIC with EPI", "setting": "[1]; E. faecalis clinical isolate 9", "result": 2, "unit": "µg/mL"}, {"measurement": "Ciprofloxacin MIC with EPI", "setting": "[1]; [3]", "result": 64, "unit": "µg/mL"}, {"measurement": "Norfloxacin MIC with EPI", "setting": "[1]; [3]", "result": 64, "unit": "µg/mL"}, {"measurement": "Ciprofloxacin MIC with EPI", "setting": "[1]; [4]", "result": 32, "unit": "µg/mL"}, {"measurement": "Norfloxacin MIC with EPI", "setting": "[1]; [4]", "result": 64, "unit": "µg/mL"}, {"measurement": "Ciprofloxacin MIC with EPI", "setting": "[1]; [5]", "result": 1, "unit": "µg/mL"}, {"measurement": "Norfloxacin MIC with EPI", "setting": "[1]; [5]", "result": 2, "unit": "µg/mL"}, {"measurement": "Ciprofloxacin MIC with EPI", "setting": "[1]; [6]", "result": 0.5, "unit": "µg/mL"}, {"measurement": "Norfloxacin MIC with EPI", "setting": "[1]; [6]", "result": 2, "unit": "µg/mL"}, {"measurement": "Ciprofloxacin MIC with EPI", "setting": "[1]; [7]", "result": 0.5, "unit": "µg/mL"}, {"measurement": "Norfloxacin MIC with EPI", "setting": "[1]; [7]", "result": 2, "unit": "µg/mL"}, {"measurement": "Ciprofloxacin MIC with EPI", "setting": "[1]; [8]", "result": 2, "unit": "µg/mL"}, {"measurement": "Norfloxacin MIC with EPI", "setting": "[1]; [8]", "result": 4, "unit": "µg/mL"}, {"measurement": "Ciprofloxacin MIC with EPI", "setting": "[1]; [9]", "result": 1, "unit": "µg/mL"}, {"measurement": "Norfloxacin MIC with EPI", "setting": "[1]; [9]", "result": 4, "unit": "µg/mL"}, {"measurement": "Ciprofloxacin MIC with EPI", "setting": "[1]; [10]", "result": 1, "unit": "µg/mL"}, {"measurement": "Norfloxacin MIC with EPI", "setting": "[1]; [10]", "result": 2, "unit": "µg/mL"}, {"measurement": "Ciprofloxacin MIC with EPI", "setting": "[1]; [11]", "result": 64, "unit": "µg/mL"}, {"measurement": "Norfloxacin MIC with EPI", "setting": "[1]; [11]", "result": 128, "unit": "µg/mL"}, {"measurement": "Ciprofloxacin MIC with EPI", "setting": "[1]; [12]", "result": 1, "unit": "µg/mL"}, {"measurement": "Norfloxacin MIC with EPI", "setting": "[1]; [12]", "result": 4, "unit": "µg/mL"}, {"measurement": "Ciprofloxacin MIC with EPI", "setting": "[1]; [13]", "result": 1, "unit": "µg/mL"}, {"measurement": "Norfloxacin MIC with EPI", "setting": "[1]; [13]", "result": 2, "unit": "µg/mL"}, {"measurement": "Ciprofloxacin MIC with EPI", "setting": "[1]; [14]", "result": 1, "unit": "µg/mL"}, {"measurement": "Norfloxacin MIC with EPI", "setting": "[1]; [14]", "result": 4, "unit": "µg/mL"}, {"measurement": "Ciprofloxacin MIC with EPI", "setting": "[1]; [15]", "result": 64, "unit": "µg/mL"}, {"measurement": "Norfloxacin MIC with EPI", "setting": "[1]; [15]", "result": 128, "unit": "µg/mL"}, {"measurement": "Ciprofloxacin MIC with EPI", "setting": "[1]; [16]", "result": 32, "unit": "µg/mL"}, {"measurement": "Norfloxacin MIC with EPI", "setting": "[1]; [16]", "result": 64, "unit": "µg/mL"}, {"measurement": "Ciprofloxacin MIC with EPI", "setting": "[1]; [17]", "result": 32, "unit": "µg/mL"}, {"measurement": "Norfloxacin MIC with EPI", "setting": "[1]; [17]", "result": 64, "unit": "µg/mL"}, {"measurement": "Ciprofloxacin MIC with EPI", "setting": "[1]; [18]", "result": 64, "unit": "µg/mL"}, {"measurement": "Norfloxacin MIC with EPI", "setting": "[1]; [18]", "result": 128, "unit": "µg/mL"}, {"measurement": "Ciprofloxacin MIC with EPI", "setting": "[1]; [19]", "result": 64, "unit": "µg/mL"}, {"measurement": "Norfloxacin MIC with EPI", "setting": "[1]; [19]", "result": 128, "unit": "µg/mL"}, {"measurement": "trend in the reduction of MICs for ciprofloxacin and norfloxacin", "setting": "[1]; E. faecalis isolates, Table 5B", "result": "less apparent"}, {"measurement": "decrease in MIC of ciprofloxacin and norfloxacin", "setting": "[2]; S. aureus isolates", "result": "no significant (>2-fold) decrease in MIC"}, {"measurement": "Ciprofloxacin MIC with EPI", "setting": "[2]; S. aureus clinical isolate 1", "result": 1, "unit": "µg/mL"}, {"measurement": "Norfloxacin MIC with EPI", "setting": "[2]; S. aureus clinical isolate 1", "result": 8, "unit": "µg/mL"}, {"measurement": "Ciprofloxacin MIC with EPI", "setting": "[2]; S. aureus clinical isolate 2", "result": 0.5, "unit": "µg/mL"}, {"measurement": "Norfloxacin MIC with EPI", "setting": "[2]; S. aureus clinical isolate 2", "result": 1, "unit": "µg/mL"}, {"measurement": "Ciprofloxacin MIC with EPI", "setting": "[2]; S. aureus clinical isolate 3", "result": 1, "unit": "µg/mL"}, {"measurement": "Norfloxacin MIC with EPI", "setting": "[2]; S. aureus clinical isolate 3", "result": 4, "unit": "µg/mL"}, {"measurement": "Ciprofloxacin MIC with EPI", "setting": "[2]; S. aureus clinical isolate 4", "result": 64, "unit": "µg/mL"}, {"measurement": "Norfloxacin MIC with EPI", "setting": "[2]; S. aureus clinical isolate 4", "result": 128, "unit": "µg/mL"}, {"measurement": "Ciprofloxacin MIC with EPI", "setting": "[2]; S. aureus clinical isolate 5", "result": 1, "unit": "µg/mL"}, {"measurement": "Norfloxacin MIC with EPI", "setting": "[2]; S. aureus clinical isolate 5", "result": 2, "unit": "µg/mL"}, {"measurement": "Ciprofloxacin MIC with EPI", "setting": "[2]; S. aureus clinical isolate 6", "result": 32, "unit": "µg/mL"}, {"measurement": "Norfloxacin MIC with EPI", "setting": "[2]; S. aureus clinical isolate 6", "result": 128, "unit": "µg/mL"}, {"measurement": "Ciprofloxacin MIC with EPI", "setting": "[2]; S. aureus clinical isolate 7", "result": 0.5, "unit": "µg/mL"}, {"measurement": "Norfloxacin MIC with EPI", "setting": "[2]; S. aureus clinical isolate 7", "result": 2, "unit": "µg/mL"}, {"measurement": "Ciprofloxacin MIC with EPI", "setting": "[2]; S. aureus clinical isolate 8", "result": 1, "unit": "µg/mL"}, {"measurement": "Norfloxacin MIC with EPI", "setting": "[2]; S. aureus clinical isolate 8", "result": 4, "unit": "µg/mL"}, {"measurement": "Ciprofloxacin MIC with EPI", "setting": "[2]; S. aureus clinical isolate 9", "result": 1, "unit": "µg/mL"}, {"measurement": "Norfloxacin MIC with EPI", "setting": "[2]; S. aureus clinical isolate 9", "result": 4, "unit": "µg/mL"}, {"measurement": "Ciprofloxacin MIC with EPI", "setting": "[2]; S. aureus clinical isolate 10", "result": 16, "unit": "µg/mL"}, {"measurement": "Norfloxacin MIC with EPI", "setting": "[2]; S. aureus clinical isolate 10", "result": 64, "unit": "µg/mL"}, {"measurement": "Ciprofloxacin MIC with EPI", "setting": "[2]; S. aureus clinical isolate 11", "result": 32, "unit": "µg/mL"}, {"measurement": "Norfloxacin MIC with EPI", "setting": "[2]; S. aureus clinical isolate 11", "result": 64, "unit": "µg/mL"}, {"measurement": "Ciprofloxacin MIC with EPI", "setting": "[2]; S. aureus clinical isolate 12", "result": 0.25, "unit": "µg/mL"}, {"measurement": "Norfloxacin MIC with EPI", "setting": "[2]; S. aureus clinical isolate 12", "result": 1, "unit": "µg/mL"}, {"measurement": "Ciprofloxacin MIC with EPI", "setting": "[2]; S. aureus clinical isolate 13", "result": 64, "unit": "µg/mL"}, {"measurement": "Norfloxacin MIC with EPI", "setting": "[2]; S. aureus clinical isolate 13", "result": 128, "unit": "µg/mL"}, {"measurement": "Ciprofloxacin MIC with EPI", "setting": "[2]; S. aureus clinical isolate 14", "result": 64, "unit": "µg/mL"}, {"measurement": "Norfloxacin MIC with EPI", "setting": "[2]; S. aureus clinical isolate 14", "result": 128, "unit": "µg/mL"}, {"measurement": "Ciprofloxacin MIC with EPI", "setting": "[2]; S. aureus clinical isolate 15", "result": ">64", "unit": "µg/mL"}, {"measurement": "Norfloxacin MIC with EPI", "setting": "[2]; S. aureus clinical isolate 15", "result": 256, "unit": "µg/mL"}]}
